Here are results for 1 compound from patent EP0004516A2, “Pharmaceutical compositions active on the gastro-intestinal motricity” (SCIENCE UNION ET Cie SOCIETE FRANCAISE DE RECHERCHE MEDICALE, priority 1978, dated 1979).

For experiment [1], the system named is fibre lisse. In words: Anti-serotonin action shown directly on smooth fibre.
Experiment [2] has as its system troubles moteurs gastro-duodénaux (dyspepsie hyposthénique en rapport avec un état dépressif psychasthénique). The experiment is described as follows: Double-blind cross-over clinical and external digestive electromyographic study versus placebo (Exemple IV). In kind it is in vivo, humaine. The method, then:
Effet normalisateur des compositions à base d'acide 7-[(3-chloro 6-methyl 5,5-dioxo 6,11-dihydrodibenzo (c,f) thiazepin 1,2-11-yl) amino] heptanoique sur les troubles moteurs gastro-duodénaux en clinique humaine.
Evaluer l'efficacité du principe actif dans trois posologies différentes : • .
Les malades ont été divisés en deux groupes de 12 sujets • . Un 1er groupe de 12 cas a reçu successivement et en cross- over 1 comprimé par jour de 12,5mg et de 25mg de PA. (Un malade de ce groupe a abandonné le traitement) • . Un 2ème groupe de 12 cas a reçu successivement et en cross- over 2 comprimés par jour, soit 2 x 12.
Chaque sujet avait au minimum : • 1. Un syndrome dyspeptique hyposténique, avec • - ballonnements • - pesanteur • - somnolence post-prandiale • - brûlures et / ou douleurs épigastriques • - états nauséeux • 2. Ln état dépressif psycnasténique, avec • - dépression • - inhibition psycho-motrice • - asthénie • - anxiété psychique et / ou somatisée • - troubles du sommeil (difficulté à l'endormissement ou réveil précoce) • 3. Un électromyogramme digestif externe pathologique, avec un retard d'apparition des ondes gastriques après le repas (d'au moins 2 heures).
• . Selon la gravité clinique, de 0 à 3 • . Pour l'électromyogramme digestif, chez un sujet normal, les ondes gastriques apparaissent dès l'ingestion d'un repas équilibré et persistent pendant 5 heures en moyenne. Cette situation était côtée 0.
Chez le dyspeptique hyposténique, il existe une absence d'ondes gastriques dans la phase post-prandiale, qui peut durer plus de 3 heures. Cette situation était côtée 2.
Si, après le traitement, la sidération diminuait, elle était côtée 1.
L'examen clinique était répété après chaque passage du produit actif, ou de placebc, soit 5 fois par milade.
En ce qui concerne les tracés EMG, nous avions prévu quatre enregistrements par sujet : avant traitement, après chaque passage de Principe Actif, et après le dernier passage Placebo.

For experiment [3], the system named is musculature lisse tube digestif. In words: Pharmacological studies: antispasmodic action and restoration of digestive smooth muscle motility.
Experiment [4] concerns ulcère produit par la contrainte. In words: Restraint ulcer protection. In kind it is in vivo, animal.
Setting [5] is: 1 x 25 mg/jour, 15 jours, Groupe I, 11 cas.
Where [6] appears, read: 1 x 12,5 mg/jour, 15 jours, Groupe I, 11 cas.
The mark [7] stands for this setting: 2 x 25mg/jour, 15 jours, Groupe II, 12 cas.
Setting [8] is: 2 x 12,5mg/jour, 15 jours, Groupe II, 12 cas.

Turning to `CN1c2ccccc2C(NCCCCCCC(=O)O)c2ccc(Cl)cc2S1(=O)=O` (racemic) [principe actif, acide 7-[(3-chloro 6-méthyl 5,5-dioxo 6,11-dihydrodibenzo (c,f)thiazepin 1,2-11-yl)amino] heptanoique], in experiment [1], the “action anti sérotonine” value was “très importante”. For the same compound, in experiment [2] (setting [5]), the “absence d'effet” value is recorded as 18,2% and the “très bon effet thérapeutique global” value was 81,8%. Moreover, in experiment [2] (setting [6]), the activité moyenne was 54,6% and the “bonne activité (très nette amélioration de l'ensemble des symptômes digestifs, psychiques, ainsi que des tracés EMG externes)” value was 45,4%. Besides, in experiment [2] (setting [7]), the activité bonne is on record as 83,3% and the activité moyenne is listed as 16,6%. In experiment [2] (setting [8]), the “Bon effet thérapeutique global” value is recorded as 66,6% and the effet moyen is given as 33,3%. In experiment [2] (12,5mg, 25mg et 50mg, both groups), the “activité globale par rapport au placebo” value is listed as “toujours été nettement supérieur au placebo”. In experiment [3], the action antispasmodique entry is “importante” and the “restauration de la motricité (atonie de la musculature lisse)” value is “capables de restaurer une motricité constante et bien coordonnée”. The “effet anti-secrétoire” value in experiment [4] (accompanying the protective effect) is on record as “ne s'accompagne pas d'effet anti-secrétoire”. In addition, the “protection contre l'ulcère produit par la contrainte” value in experiment [4] (in vivo) is given as “protégeait l'animal contre l'ulcère produit par la contrainte”.
